Experiments:
[1] = target: T1, Lycopene beta-cyclase (Pantoea ananas) (UniProt P21687); experiment: Inhibition of Pantoea ananatis lycopene cyclase assessed as residual enzyme activity at 0.5 mM
T1 sequence (whole entry): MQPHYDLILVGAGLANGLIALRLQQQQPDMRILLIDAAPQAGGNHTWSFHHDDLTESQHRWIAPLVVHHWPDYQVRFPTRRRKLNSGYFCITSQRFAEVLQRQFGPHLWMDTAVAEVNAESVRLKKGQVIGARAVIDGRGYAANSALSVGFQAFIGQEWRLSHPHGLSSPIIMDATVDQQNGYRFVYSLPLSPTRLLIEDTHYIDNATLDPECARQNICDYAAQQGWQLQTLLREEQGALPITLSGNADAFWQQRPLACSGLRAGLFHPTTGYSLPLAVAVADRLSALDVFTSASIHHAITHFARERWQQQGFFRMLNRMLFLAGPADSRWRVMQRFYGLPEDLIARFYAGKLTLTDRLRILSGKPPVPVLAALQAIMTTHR

[2] = target: T1, Lycopene beta-cyclase (Pantoea ananas); experiment: Inhibition of Pantoea ananatis lycopene cyclase assessed as residual enzyme activity at 10 mM
Lycopene beta-cyclase = target: T2, Lycopene beta-cyclase (Pantoea ananas, UniProt P21687); experiment: Inhibition of Pantoea ananatis lycopene cyclase; conditions: read-out: I50
T2 sequence (P21687 whole entry): T1 sequence (whole entry)

Row | Compound | Activity [1] | Activity [2] | IC50 (Lycopene beta-cyclase)
1 | O=CC(=O)c1ccccc1 | 92% |  | 
2 | CC(=O)C(C)=O | 90% |  | 
3 | CCN1C(=O)C=CC1=O | 83% |  | 
4 | NC(=O)CI | 87% |  | 
5 | CN1CCC[C@H]1c1cccnc1 [NICOTINE] |  | 64% | 4.8 µM
6 | Cc1cc(OC(=O)N2CCCCC2)c(C(C)C)cc1[N+](C)(C)C |  | 36% | 
7 | CCN(CC)CCOc1ccc(C)cc1 |  |  | 12 µM

Source: ChEMBL document CHEMBL3045626, “Interaction of 2-(4-Methylphenoxy)triethylamine and Related Compounds with Its Herbicide Target in the Carotenoid Biosynthetic Pathway” (J Pestic Sci, 1998)
